Test results published in US8969516B2, “Method of hydrolysis of peptide bond” (priority 2006, dated 2015).

Test: MALDI-TOF screening of Ni^2+ dependent hydrolysis in a combinatorial peptide library
Type: physicochemical
Conditions: CH3CO-Gly-Ala-Thr-X-His-Z-Lys-Phe-Leu-NH2 library, Ni^2+ 2 mM, pH 8.2, 10 mM Tris, score=24/tm
In short: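 Peptide sublibraries CH3CO-Gly-Ala-Ser/Thr-X-His-Z-Lys-Phe-Leu-NH2 (1 mM total) incubated with 2 mM Ni^2+ in 10 mM Tris pH 8.2 at 37 °C and 45 °C. Hydrolysis products, plus loss of substrate signals, detected by MALDI-TOF at 2, 4, 6 and 8 h; residues X and Z scored and ranked.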

Row | Substance | hydrolysis score from MALDI-TOF screening (37° C.) | hydrolysis score from MALDI-TOF screening (45° C.)
1 | Ac-GATRHGKFL-NH2 [TRHG] | 0 (a score of 0 if no trace of the product of hydrolysis was seen after 8 hours of incubation) | 0 (a score of 0 if no trace of the product of hydrolysis was seen after 8 hours of incubation)
2 | Ac-GATRHHKFL-NH2 [TRHH] | 3 (a score of 3 for detection at 8 hours) | 4 (a score of 4 for detection at 6 hours)
3 | Ac-GATRHIKFL-NH2 [TRHI] | 6 (a score of 6 for detection at 4 hours) | 12 (a score of 12, if it was seen to be partially hydrolysed at 2 hours)
4 | Ac-GATRHKKFL-NH2 [TRHK] | 6 (a score of 6 for detection at 4 hours) | 12 (a score of 12, if it was seen to be partially hydrolysed at 2 hours)
5 | Ac-GATRHLKFL-NH2 [TRHL] | 6 (a score of 6 for detection at 4 hours) | 12 (a score of 12, if it was seen to be partially hydrolysed at 2 hours)
6 | Ac-GATRHMKFL-NH2 [TRHM] | 3 (a score of 3 for detection at 8 hours) | 4 (a score of 4 for detection at 6 hours)
7 | Ac-GATRHNKFL-NH2 [TRHN] | 0 (a score of 0 if no trace of the product of hydrolysis was seen after 8 hours of incubation) | 0 (a score of 0 if no trace of the product of hydrolysis was seen after 8 hours of incubation)
8 | Ac-GATRHPKFL-NH2 [TRHP] | 0 (a score of 0 if no trace of the product of hydrolysis was seen after 8 hours of incubation) | 0 (a score of 0 if no trace of the product of hydrolysis was seen after 8 hours of incubation)
9 | Ac-GATRHQKFL-NH2 [TRHQ] | 0 (a score of 0 if no trace of the product of hydrolysis was seen after 8 hours of incubation) | 0 (a score of 0 if no trace of the product of hydrolysis was seen after 8 hours of incubation)
10 | Ac-GATRHRKFL-NH2 [TRHR] | 4 (a score of 4 for detection at 6 hours) | 6 (a score of 6 for detection at 4 hours)
11 | Ac-GATRHSKFL-NH2 [TRHS] | 0 (a score of 0 if no trace of the product of hydrolysis was seen after 8 hours of incubation) | 0 (a score of 0 if no trace of the product of hydrolysis was seen after 8 hours of incubation)
12 | Ac-GATRHTKFL-NH2 [TRHT] | 0 (a score of 0 if no trace of the product of hydrolysis was seen after 8 hours of incubation) | 0 (a score of 0 if no trace of the product of hydrolysis was seen after 8 hours of incubation)
13 | Ac-GATRHVKFL-NH2 [TRHV] | 3 (a score of 3 for detection at 8 hours) | 4 (a score of 4 for detection at 6 hours)
14 | Ac-GATRHWKFL-NH2 [TRHW] | 12 (a score of 12, if it was seen to be partially hydrolysed at 2 hours) | 12 (a score of 12, if it was seen to be partially hydrolysed at 2 hours)
15 | Ac-GATRHYKFL-NH2 [TRHY] | 4 (a score of 4 for detection at 6 hours) | 6 (a score of 6 for detection at 4 hours)
16 | Ac-GATSHAKFL-NH2 [TSHA] | 0 (a score of 0 if no trace of the product of hydrolysis was seen after 8 hours of incubation) | 0 (a score of 0 if no trace of the product of hydrolysis was seen after 8 hours of incubation)
17 | Ac-GATSHDKFL-NH2 [TSHD] | 0 (a score of 0 if no trace of the product of hydrolysis was seen after 8 hours of incubation) | 0 (a score of 0 if no trace of the product of hydrolysis was seen after 8 hours of incubation)
18 | Ac-GATSHEKFL-NH2 [TSHE] | 0 (a score of 0 if no trace of the product of hydrolysis was seen after 8 hours of incubation) | 0 (a score of 0 if no trace of the product of hydrolysis was seen after 8 hours of incubation)

Row | Substance | hydrolysis score from MALDI-TOF screening (37° C.) | hydrolysis score from MALDI-TOF screening (45° C.)
19 | Ac-GATSHFKFL-NH2 [TSHF] | 0 (a score of 0 if no trace of the product of hydrolysis was seen after 8 hours of incubation) | 0 (a score of 0 if no trace of the product of hydrolysis was seen after 8 hours of incubation)
20 | Ac-GATSHGKFL-NH2 [TSHG] | 0 (a score of 0 if no trace of the product of hydrolysis was seen after 8 hours of incubation) | 0 (a score of 0 if no trace of the product of hydrolysis was seen after 8 hours of incubation)
21 | Ac-GATSHHKFL-NH2 [TSHH] | 0 (a score of 0 if no trace of the product of hydrolysis was seen after 8 hours of incubation) | 0 (a score of 0 if no trace of the product of hydrolysis was seen after 8 hours of incubation)
22 | Ac-GATSHIKFL-NH2 [TSHI] | 0 (a score of 0 if no trace of the product of hydrolysis was seen after 8 hours of incubation) | 0 (a score of 0 if no trace of the product of hydrolysis was seen after 8 hours of incubation)
23 | Ac-GATSHKKFL-NH2 [TSHK] | 0 (a score of 0 if no trace of the product of hydrolysis was seen after 8 hours of incubation) | 0 (a score of 0 if no trace of the product of hydrolysis was seen after 8 hours of incubation)
24 | Ac-GATSHLKFL-NH2 [TSHL] | 0 (a score of 0 if no trace of the product of hydrolysis was seen after 8 hours of incubation) | 0 (a score of 0 if no trace of the product of hydrolysis was seen after 8 hours of incubation)
25 | Ac-GATSHMKFL-NH2 [TSHM] | 0 (a score of 0 if no trace of the product of hydrolysis was seen after 8 hours of incubation) | 0 (a score of 0 if no trace of the product of hydrolysis was seen after 8 hours of incubation)
26 | Ac-GATSHNKFL-NH2 [TSHN] | 0 (a score of 0 if no trace of the product of hydrolysis was seen after 8 hours of incubation) | 0 (a score of 0 if no trace of the product of hydrolysis was seen after 8 hours of incubation)
27 | Ac-GATSHPKFL-NH2 [TSHP] | 0 (a score of 0 if no trace of the product of hydrolysis was seen after 8 hours of incubation) | 0 (a score of 0 if no trace of the product of hydrolysis was seen after 8 hours of incubation)
28 | Ac-GATSHQKFL-NH2 [TSHQ] | 0 (a score of 0 if no trace of the product of hydrolysis was seen after 8 hours of incubation) | 0 (a score of 0 if no trace of the product of hydrolysis was seen after 8 hours of incubation)
29 | Ac-GATSHRKFL-NH2 [TSHR] | 0 (a score of 0 if no trace of the product of hydrolysis was seen after 8 hours of incubation) | 0 (a score of 0 if no trace of the product of hydrolysis was seen after 8 hours of incubation)
30 | Ac-GATSHSKFL-NH2 [TSHS] | 0 (a score of 0 if no trace of the product of hydrolysis was seen after 8 hours of incubation) | 0 (a score of 0 if no trace of the product of hydrolysis was seen after 8 hours of incubation)
31 | Ac-GATSHTKFL-NH2 [TSHT] | 0 (a score of 0 if no trace of the product of hydrolysis was seen after 8 hours of incubation) | 0 (a score of 0 if no trace of the product of hydrolysis was seen after 8 hours of incubation)
32 | Ac-GATSHVKFL-NH2 [TSHV] | 0 (a score of 0 if no trace of the product of hydrolysis was seen after 8 hours of incubation) | 0 (a score of 0 if no trace of the product of hydrolysis was seen after 8 hours of incubation)
33 | Ac-GATSHWKFL-NH2 [TSHW] | 0 (a score of 0 if no trace of the product of hydrolysis was seen after 8 hours of incubation) | 0 (a score of 0 if no trace of the product of hydrolysis was seen after 8 hours of incubation)
34 | Ac-GATSHYKFL-NH2 [TSHY] | 0 (a score of 0 if no trace of the product of hydrolysis was seen after 8 hours of incubation) | 0 (a score of 0 if no trace of the product of hydrolysis was seen after 8 hours of incubation)
35 | Ac-GATTHAKFL-NH2 [TTHA] | 0 (a score of 0 if no trace of the product of hydrolysis was seen after 8 hours of incubation) | 0 (a score of 0 if no trace of the product of hydrolysis was seen after 8 hours of incubation)
